The values that follow come from patent US9624477B2 (priority 2004, dated 2017).

The test deals with Pi-omega3Des. Type of test: cell-based, Phytophthora infestans. The settings on record: FIG. 9; for phospholipid converted by ω-3-desaturase: desaturation products also found in the neutral lipids; for desaturation of phospholipid-bound fatty acid (sn1 or sn2 position): fatty acids bound in phospholipids.

As for phosphatidylethanolamine, the “phospholipid converted by ω-3-desaturase” value was “converts”.

Take phosphatidylcholine: the “phospholipid converted by ω-3-desaturase” value is on record as “converts”.

In the case of `CCCCC/C=C\C/C=C\C/C=C\C/C=C\CCCC(=O)O` [arachidonic acid, reference compound], the “desaturation of phospholipid-bound fatty acid (sn1 or sn2 position)” value is on record as “desaturation of phospholipid-bound arachidonic acid to EPA”.

For the molecule `CCCCC/C=C\C/C=C\C/C=C\CCCCCCC(=O)O` [C20:3 ω-6-fatty acid, dihomo-γ-linolenic acid, reference compound], the “desaturation of phospholipid-bound fatty acid (sn1 or sn2 position)” value is given as “does not differentiate between fatty acids bound at the sn1 or sn2 position”.

As for phosphatidylinositol, the “phospholipid converted by ω-3-desaturase” value is “converts”.
